Data published in patent US8232308B2, “Methods for treating a disease in which Rho kinase is involved” (UBE Industries, Ltd., priority 2003, dated 2012).
Structures can show the parent of a compound that is named as a salt.

Target: T1, activated ROCK II (Rattus norvegicus, UniProt Q62868)
T1 construct: purchased Upstate Biotechnology 14-338
Experiment: Test for Evaluation of Inhibiting Activity to Rho Kinase
Format: biochemical
Settings: S6 Kinase Substrate Peptide, [γ-32P]ATP, 30° C. for 15 minutes, Ki=IC50/(1+S/Km)
Method: In order to find the utility of the present invention compound, a Rho kinase inhibiting activity of the present invention compound was evaluated. The details thereof will be illustrated under the item of “Pharmacological Test (Test for Evaluation of Rho Kinase Inhibiting Activity)” in the Examples which will be mentioned later. The evaluation of the Rho kinase inhibiting activity of the present invention compound was carried out in accordance with the methods mentioned in J. Biol. Chem., 274, 32418 (1999) by Kaibuchi, et al. and mentioned in the instruction manual for use attached to the commercially available activated ROCK II [Upstate Biotechnology, Catalog No. 14-338 (5 units/50 μl)].
A. Test for Evaluation of Inhibiting Activity to Rho Kinase
In order to test the usefulness of the compounds of the present invention as a Rho kinase inhibitor, inhibiting activities of the compounds of the present invention to Rho kinase were evaluated and investigated in accordance with the methods of Kaibuchi, et al. mentioned in J. Biol. Chem., 274, 32418, 1999 and also with the methods mentioned in the instruction manual for use attached to commercially available activated ROCK II [Upstate Biotechnology, Catalog No. 14-338, (5 unite/50 μl)]. With regard to the test compounds, the compounds 5-1 to 5-73 (except the compounds 5-2, 5-9, 5-18, 5-37 and 5-38) were used.
A buffer was prepared so as to make tris(hydroxymethyl)aminomethane (Tris) (pH 7.5), 50 mM, ethyleneglycol bis(β-aminoethyl ether)-N,N,N′,N′-tetraacetic acid (EGTA), 2 mM, ethylenediaminetetraacetic acid (EDTA), 1 mM, magnesium chloride (MgCl2) 5 mM, β-glycerol phosphate, 5 mM, and dithiothreitol (DTT), 2 mM, by mixing them.
A mixed liquid of a 10 mM ATP solution with a commercially available [γ-^32P]ATP solution [NEN, Code No. NEG-002A] was diluted with the buffer to prepare a 300 μM ATP [γ-^32P]ATP solution.
A Commercially Available Activated ROCK II [Upstate Biotechnology, Catalog No. 14-338, (5 Units/50 μl)] was diluted to a concentration of 1/100 with the buffer to prepare an activated ROCK II solution.
A S6 Kinase Substrate Peptide [Upstate Biotechnology, Catalog No. 12-124,] (2 mg) was dissolved in distilled water to prepare a 1 mM substrate solution.
A test compound was dissolved in 10% aqueous dimethyl sulfoxide solution.
1) The test compound solution is placed in a microtube.
2) The 300 μM ATP [γ-^32P]ATP solution is added to the microtube followed by cooling to 4° C.
3) After that, a permanently activated ROCK II solution, 1 mM substrate solution and buffer are added to each microtube in that order, and the whole is mixed and cooled again at 4° C.
4) The microtube is placed in an incubator (30° C.) and the mixture is subjected to reaction for 15 minutes.
5) After cooling to 4° C., a 250 mM phosphoric acid solution (5 μl) is added to each microtube to stop the reaction.
6) The reaction solution (30 μl) is taken out from each microtube and spotted on a filter paper (Whatman P81) so that the reaction product (phosphorylated substrate) is adsorbed to the filter paper.
7) The filter paper is transferred to a beaker in which a 75 mM phosphoric acid solution is placed and shaken for 5 minutes so that unreacted [γ-^32P]AfP is washed out. The washing operation as such is carried out four times.
8) After that, the filter paper is dipped in ethanol to dehydrate and energy amount (radioactivity) of the reaction product adsorbed to the filter paper is measured with a liquid scintillation counter.
The IC50 value was calculated by an XL-fit (IDBS).
The Ki value is calculated by the following formula. S is an ATP concentration contained in the reaction solution while Km is a Michaelis-Menten constant. Ki=IC50/(1+S/Km)

T1 sequence (Q62868 11-550 limits assumed): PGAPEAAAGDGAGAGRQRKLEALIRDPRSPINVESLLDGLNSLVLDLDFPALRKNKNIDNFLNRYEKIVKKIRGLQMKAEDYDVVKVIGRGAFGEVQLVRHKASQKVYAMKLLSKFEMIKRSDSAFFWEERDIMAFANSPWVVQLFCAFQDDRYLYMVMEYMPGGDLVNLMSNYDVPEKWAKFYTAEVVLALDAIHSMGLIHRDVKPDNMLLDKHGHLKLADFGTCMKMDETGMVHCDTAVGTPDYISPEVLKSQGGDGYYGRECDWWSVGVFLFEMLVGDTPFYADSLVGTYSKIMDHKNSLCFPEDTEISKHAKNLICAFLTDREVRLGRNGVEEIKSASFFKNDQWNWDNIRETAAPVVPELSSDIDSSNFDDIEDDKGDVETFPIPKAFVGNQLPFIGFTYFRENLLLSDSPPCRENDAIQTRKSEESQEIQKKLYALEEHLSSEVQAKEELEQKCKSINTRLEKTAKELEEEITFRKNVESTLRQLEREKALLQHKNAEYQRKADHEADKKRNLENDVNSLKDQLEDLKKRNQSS

Row | SMILES | Ki [nM]
1 | CC(C)(N)c1ccc(-c2ccc3[nH]ncc3c2)cc1 [Compound 5-1, 5-[4-(1-amino-1-methylethyl)phenyl]-1H-indazole dihydrochloride] | 19
2 | CC(C)(N)c1ccc(-c2ccc3[nH]ncc3c2[N+](=O)[O-])cc1 [Compound 5-4, 5-[4-(1-Amino-1-methylethyl)phenyl]-4-nitro-1H-indazole monohydrochloride] | 28
3 | CC(C)(N)c1ccc(-c2ccc3[nH]ncc3c2N)cc1 [Compound 5-5, 4-Amino-5-[4-(1-amino-1-methylethyl)phenyl]-1H-indazole trihydrochloride] | 44
4 | CC(C)(N)c1ccc(-c2ccc3[nH]ncc3c2NCc2ccccc2)cc1 [Compound 5-6, 5-[4-(1-Amino-1-methylethyl)phenyl]-4-benzylamino-1H-indazole dihydrochloride] | 260
5 | CNc1c(-c2ccc(C(C)(C)N)cc2)ccc2[nH]ncc12 [Compound 5-7, 5-[4-(1-Amino-1-methylethyl)phenyl]-4-methylamino-1H-indazole trihydrochloride] | 15
6 | CC(C)(N)c1ccc(-c2ccc3[nH]nc(N)c3c2)cc1 [Compound 5-11, 3-Amino-5-[4-(1-amino-1-methylethyl)phenyl]-1H-indazole trihydrochloride] | 144
7 | CC(C)(N)c1ccc(-c2ccc3[nH]nc(C=NO)c3c2)cc1 [Compound 5-12, 5-[4-(1-Amino-1-methylethyl)phenyl]-3-hydroxyimino-methyl-1H-indazole monohydrochloride] | 7.5
8 | CC(C)(N)c1ccc(-c2ccc3[nH]nc(C#N)c3c2)cc1 [Compound 5-13, 5-[4-(1-Amino-1-methylethyl)phenyl]-3-cyano-1H-indazole dihydrochloride] | 103
9 | CC(C)(N)c1ccc(-c2ccc3[nH]nc(CO)c3c2)cc1 [Compound 5-14, 5-[4-(1-Amino-1-methylethyl)phenyl]-3-hydroxymethyl-1H-indazole dihydrochloride] | 142
10 | CN(C)c1c(-c2ccc(C(C)(C)N)cc2)ccc2[nH]ncc12 [Compound 5-16, 5-[4-(1-Amino-1-methylethyl)phenyl]-4-dimethylamino-1H-indazole trihydrochloride] | 16
11 | CC(C)(N)c1ccc(-c2ccc3[nH]ncc3c2[N+](=O)[O-])nc1 [Compound 5-17, 5-[5-(1-Amino-1-methylethyl)pyridin-2-yl]-4-nitro-1H-indazole dihydrochloride] | 199
12 | Nc1c(-c2ccc(C3(N)CCCC3)cc2)ccc2[nH]ncc12 [Compound 5-21, 4-Amino-5-[4-(1-aminocyclopentyl)phenyl]-1H-indazole dihydrochloride] | 26
13 | CCC(N)(CC)c1ccc(-c2ccc3[nH]ncc3c2N)cc1 [Compound 5-22, 4-Araino-5-[4-(1-amino-1-ethylpropyl)phenyl]-1H-indazole trihydrochloride] | 38
14 | CN(C)c1c(-c2ccc(C3(N)CCCC3)cc2)ccc2[nH]ncc12 [Compound 5-24, 5-[4-(1-Aminocyclopentyl)phenyl]-4-dimethylamino-1H-indazole trihydrochloride] | 14
15 | CCC(N)(CC)c1ccc(-c2ccc3[nH]ncc3c2N(C)C)cc1 [Compound 5-25, 5-[4-(1-Amino-1-ethylpropyl)phenyl]-4-dimethylamino-1H-indazole trihydrochloride] | 23
16 | CC(N)c1ccc(-c2ccc3[nH]ncc3c2N(C)C)cc1 (stereo not drawn) [Compound 5-26, 5-[4-(1-Aminoethyl)phenyl]-4-dimethylamino-1H-indazole trihydrochloride] | 27
17 | CC(C)(N)c1ccc(-c2ccc3[nH]ncc3c2CCO)nc1 [Compound 5-33, 5-[5-(1-Amino-1-methylethyl)pyridin-2-yl]-4-(2-hydroxyethyl)-1H-indazole trihydrochloride] | 234
18 | CC(O)c1c(-c2ccc(C(C)(C)N)cc2)ccc2[nH]ncc12 (stereo not drawn) [Compound 5-34, 5-[4-(1-Amino-1-methylethyl)phenyl]-4-(1-hydroxy-ethyl)-1H-indazole dihydrochloride] | 294

Further molecules by falling Ki, results first:

Row | Ki [nM] | SMILES
19 | 614 | CCN(CC)c1c(-c2ccc(C(C)(C)N)cc2)ccc2[nH]ncc12 [Compound 5-31, 5-[4-(1-Amino-1-methylethyl)phenyl]-4-diethylamino-1H-indazole trihydrochloride]
20 | 139 | CC(C)(N)c1ccc(-c2ccc3[nH]ncc3c2CO)cc1 [Compound 5-35, 5-[4-(1-Amino-1-methylethyl)phenyl]-4-hydroxymethyl-1H-indazole dihydrochloride]
21 | 134 | CC(C)(N)c1ccc(-c2ccc3[nH]nc(C(N)=O)c3c2)cc1 [Compound 5-10, 3-Aminocarbonyl-5-[4-(1-amino-1-methylethyl)phenyl]-1H-indazole monohydrochloride]
22 | 97 | COC(=O)c1n[nH]c2ccc(-c3ccc(C(C)(C)N)cc3)cc12 [Compound 5-8, 5-[4-(1-Amino-1-methylethyl)phenyl]-3-methoxy-carbonyl-1H-indazole dihydrochloride]
23 | 86 | CC(C)(N)c1cnc(-c2ccc3[nH]ncc3c2)c(Cl)c1 [Compound 5-27, 5-[5-(1-Amino-1-methylethyl)-3-chloropyridin-2-yl]-1H-indazole trihydrochloride]
24 | 61 | NCc1ccc(-c2ccc3[nH]ncc3c2N)cc1 [Compound 5-20, 4-Amino-5-[4-(aminomethyl)phenyl]-1H-indazole trihydrochloride]
25 | 56 | C=C(C)c1n[nH]c2ccc(-c3ccc(C(C)(C)N)cc3)cc12 [Compound 5-15, 5-[4-(1-Amino-1-methylethyl)phenyl]-3-(1-methyl-vinyl)-1H-indazole monotrifluoroacetate]
26 | 55 | NCc1ccc(-c2ccc3[nH]ncc3c2[N+](=O)[O-])cc1 [Compound 5-19, 5-[4-(Aminomethyl)phenyl]-4-nitro-1H-indazole dihydrochloride]
27 | 47 | CC(C)(N)c1ccc(-c2ccc3[nH]ncc3c2CCO)cc1 [Compound 5-32, 5-[4-(1-Amino-1-methylethyl)phenyl]-4-(2-hydroxy-ethyl)-1H-indazole dihydrochloride]
28 | 35 | CC(C)(N)c1ccc(-c2ccc3[nH]ncc3c2C#N)cc1 [Compound 5-36, 5-[4-(1-Amino-1-methylethyl)phenyl]-4-cyano-1H-indazole monohydrochloride]
29 | 29 | CN(C)c1c(-c2ccc(CN)cc2)ccc2[nH]ncc12 [Compound 5-23, 5-[4-(Aminomethyl)phenyl]-4-dimethylamino-1H-indazole trihydrochloride]
30 | 20 | CC(C)(N)c1ccc(-c2ccc3[nH]ncc3c2)nc1 [Compound 5-3, 5-[5-(1-Amino-1-methylethyl)pyridin-2-yl]-1H-indazole trihydrochloride]
31 | 17 | C=Cc1c(-c2ccc(C(C)(C)N)cn2)ccc2[nH]ncc12 [Compound 5-30, 5-[5-(1-Amino-1-methylethyl)pyridin-2-yl]-4-vinyl-1H-indazole trihydrochloride]
32 | 15 | CCc1c(-c2ccc(C(C)(C)N)cn2)ccc2[nH]ncc12 [Compound 5-28, 5-[5-(1-Amino-1-methylethyl)pyridin-2-yl]-4-ethyl-1H-indazole trihydrochloride]
33 | 2.7 | CC(C)(N)c1ccc(-c2ccc3[nH]ncc3c2C2CC2)nc1 [Compound 5-29, 5-[5-(1-Amino-1-methylethyl)pyridin-2-yl]-4-cyclo-propyl-1H-indazole trihydrochloride]
